Laboratory results as given in US10618918B2, “Substituted boronic acids as antimicrobials” (priority 2015, dated 2020).
Like-named read-outs stand apart in the source and are kept apart here.

How the values were obtained:
[1] = system: KP1004 KPC-2; assay: Biapenem potentiation (MPC@1), strain KP1004 KPC-2; assay type: cell-based; settings: minimum BLI concentration inhibiting growth with biapenem 1 μg/mL; tested up to 40 μg/mL
Experimental: (§1) Biapenem was present in the test medium at 1 μg/mL. […] Table 3 summarizes the BLI potency of biapenem potentiation (MPC@1) for two strains overexpressing class A (KPC) and class D (OXA-48) carbapenemases. Biapenem MIC for each strain is also shown.

[2] = system: KP1086 OXA-48; assay: Biapenem potentiation (MPC@1), strain KP1086 OXA-48; assay type: cell-based; settings: minimum BLI concentration inhibiting growth with biapenem 1 μg/mL; tested up to 40 μg/mL
Experimental: as §1

[3] = system: AB1053 OXA-72; assay: Meropenem potentiation (MPC@8), strain AB1053 OXA-72; assay type: cell-based, Acinetobacter baumannii; settings: minimum BLI concentration inhibiting growth with meropenem 8 μg/mL; tested up to 20 μg/mL
[4] = system: AB1054 OXA-23; assay: Meropenem potentiation (MPC@8), strain AB1054 OXA-23; assay type: cell-based, Acinetobacter baumannii; settings: minimum BLI concentration inhibiting growth with meropenem 8 μg/mL; tested up to 20 μg/mL
[5] = target: T1, purified class A, C and D enzymes (β-lactamases) (Acinetobacter baumannii, UniProt Q9L4P2); assay: biochemical; assay type: biochemical; settings: purified OXA-23; nitrocefin (NCF) as reporter substrate
T1 construct: rows headed: Ki (OXA-23, NCF), uM; other: purified OXA-23; nitrocefin (NCF) as reporter substrate

[6] = target: purified class A, C and D enzymes (β-lactamases) (Enterobacter cloacae, UniProt P05364); assay: biochemical; assay type: biochemical
[7] = target: purified class A, C and D enzymes (β-lactamases) (Escherichia coli, UniProt Q9L5C7); assay: biochemical; assay type: biochemical; settings: purified CTX-M-14; nitrocefin (NCF) as reporter substrate
[8] = target: purified class A, C and D enzymes (β-lactamases) (Klebsiella pneumoniae, UniProt Q6XEC0); assay: biochemical; assay type: biochemical; settings: purified OXA-48; nitrocefin (NCF) as reporter substrate
[9] = target: purified class A, C and D enzymes (β-lactamases) (Klebsiella pneumoniae, UniProt Q9F663); assay: biochemical; assay type: biochemical; settings: purified KPC-2; nitrocefin (NCF) as reporter substrate
[10] = target: T2, purified class A, C and D enzymes (β-lactamases) (Pseudomonas aeruginosa, UniProt P24735); assay: biochemical; assay type: biochemical
T2 construct: rows headed: Ki (Pa-AmpC, NCF), uM; other: purified Pa-AmpC; nitrocefin (NCF) as reporter substrate

[11] = system: ECL1002; assay: Aztreonam potentiation (MPC@4), strain ECL1002; settings: minimum BLI concentration inhibiting growth with aztreonam 4 μg/mL; tested up to 40 μg/mL
[12] = system: ec308 SHV-5; assay: Aztreonam potentiation (MPC@4), strain ec308 SHV-5; settings: minimum BLI concentration inhibiting growth with aztreonam 4 μg/mL; tested up to 40 μg/mL
[13] = system: ec302 TEM-10; assay: Aztreonam potentiation (MPC@4), strain ec302 TEM-10; settings: minimum BLI concentration inhibiting growth with aztreonam 4 μg/mL; tested up to 40 μg/mL
[14] = system: KP1004 KPC-2; assay: Aztreonam potentiation (MPC@4), strain KP1004 KPC-2; settings: minimum BLI concentration inhibiting growth with aztreonam 4 μg/mL; tested up to 40 μg/mL
[15] = system: EC1010 CMY-6; assay: Aztreonam potentiation (MPC@4), strain EC1010 CMY-6; settings: minimum BLI concentration inhibiting growth with aztreonam 4 μg/mL; tested up to 40 μg/mL
[16] = system: KP1010 SHV-12; assay: Aztreonam potentiation (MPC@4), strain KP1010 SHV-12; settings: minimum BLI concentration inhibiting growth with aztreonam 4 μg/mL; tested up to 40 μg/mL
[17] = system: KP1009 CTX-M-15; assay: Aztreonam potentiation (MPC@4), strain KP1009 CTX-M-15; settings: minimum BLI concentration inhibiting growth with aztreonam 4 μg/mL; tested up to 40 μg/mL
[18] = system: KP1005 CTX-M-14; assay: Tigemonam potentiation (MPC@4), strain KP1005 CTX-M-14; settings: minimum BLI concentration inhibiting growth with tigemonam 4 μg/mL; tested up to 40 μg/mL

T1 sequence (Q9L4P2 whole entry): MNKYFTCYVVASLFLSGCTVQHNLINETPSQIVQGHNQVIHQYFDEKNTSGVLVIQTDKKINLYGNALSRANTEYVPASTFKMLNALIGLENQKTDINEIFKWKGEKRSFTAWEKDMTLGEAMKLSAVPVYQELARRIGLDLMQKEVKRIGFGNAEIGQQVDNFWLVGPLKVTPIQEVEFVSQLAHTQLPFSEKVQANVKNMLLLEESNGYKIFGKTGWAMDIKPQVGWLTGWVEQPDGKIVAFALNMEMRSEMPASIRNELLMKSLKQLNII
Chain of purified class A, C and D enzymes (β-lactamases) (Enterobacter cloacae, UniProt P05364) (P05364 21-381): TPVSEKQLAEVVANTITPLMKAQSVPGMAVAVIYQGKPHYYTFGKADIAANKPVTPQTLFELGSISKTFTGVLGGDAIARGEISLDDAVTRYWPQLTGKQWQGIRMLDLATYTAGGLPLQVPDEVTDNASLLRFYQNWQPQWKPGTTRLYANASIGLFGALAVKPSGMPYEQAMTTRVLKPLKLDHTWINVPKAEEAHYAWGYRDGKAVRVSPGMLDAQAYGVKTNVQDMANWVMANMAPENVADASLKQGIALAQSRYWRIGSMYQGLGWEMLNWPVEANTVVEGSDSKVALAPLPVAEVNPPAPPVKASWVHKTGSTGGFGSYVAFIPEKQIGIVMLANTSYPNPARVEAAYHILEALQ
T2 sequence (P24735 whole entry): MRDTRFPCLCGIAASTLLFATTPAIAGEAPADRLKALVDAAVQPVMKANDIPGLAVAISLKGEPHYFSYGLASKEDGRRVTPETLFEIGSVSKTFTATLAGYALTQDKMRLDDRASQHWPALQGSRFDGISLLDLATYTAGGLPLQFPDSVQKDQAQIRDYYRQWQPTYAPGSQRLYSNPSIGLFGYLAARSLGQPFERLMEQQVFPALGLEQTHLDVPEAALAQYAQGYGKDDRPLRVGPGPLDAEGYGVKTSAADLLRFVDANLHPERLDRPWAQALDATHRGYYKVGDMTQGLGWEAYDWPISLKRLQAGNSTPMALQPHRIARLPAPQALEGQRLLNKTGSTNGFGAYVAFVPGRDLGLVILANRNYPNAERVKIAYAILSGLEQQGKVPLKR
Chain of purified class A, C and D enzymes (β-lactamases) (Escherichia coli, UniProt Q9L5C7) (Q9L5C7 entry or part of it): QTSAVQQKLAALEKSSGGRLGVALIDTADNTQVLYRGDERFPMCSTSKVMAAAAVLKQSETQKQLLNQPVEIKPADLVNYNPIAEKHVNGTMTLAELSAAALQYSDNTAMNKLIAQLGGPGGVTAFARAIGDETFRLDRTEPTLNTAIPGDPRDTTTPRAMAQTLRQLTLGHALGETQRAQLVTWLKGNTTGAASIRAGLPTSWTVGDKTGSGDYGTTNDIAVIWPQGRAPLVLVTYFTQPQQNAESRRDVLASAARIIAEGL

Row | Compound | BPM MPC1 KP1004 KPC-2 [1] | BPM MPC1 OXA-48 KP1086 [2] | MPM MPC8 AB1053 OXA-72 [3] | MPM MPC8 AB1054 OXA-23 [4] | Ki [5] | Ki (P99, NCF), uM [6] | Ki (CTX-M-14, NCF), uM [7] | Ki (OXA-48, NCF), uM [8] | Ki (KPC-2, NCF), uM [9] | Ki [10] | AZT MPC4 ECL1002 [11] | AZT MPC4 SHV-5 ec308 [12] | AZT MPC4 TEM-10 ec302 [13] | AZT MPC4 KPC-2 KP1004 [14] | AZT MPC4 CMY-6 EC1010 [15] | AZT MPC4 SHV-12 KP1010 [16] | AZT MPC4 CTX-M-15 KP1009 [17] | TIG MPC4 CTX-M-14 KP1005 [18] | Ki (P99, NCF), uM ([6]; purified P99, nitrocefin (NCF) as reporter substrate) | Ki ([10]; purified Pa-AmpC, nitrocefin (NCF) as reporter substrate, read-out: Ki (Pa-AmpC, NCF))
1 | Nc1nnc(SCc2ccc3c(c2C(=O)[O-])O[B-](O)(O)CC3)s1.[Na+].[Na+] [Compound 22, Disodium; 8-[(5-amino-1,3,4-thiadiazol-2-yl)sulfanylmethyl]-4,4-dihydroxy-5-oxa-4-boranuidabicyclo[4.4.0]deca-1(6),7,9-triene-7-carboxylate] | X (X = MPC@1 ≤ 5 μg/mL) | Y (Y = 5 μg/mL < MPC@1 ≤ 20 μg/mL) | Z (Z = MPC@1 > 20 μg/mL) | Y (Y = 5 μg/mL < MPC@1 ≤ 20 μg/mL) | < 0.1 µM | X (key: X = Ki ≤ 0.1 μM; Y = 0.1 μM < Ki ≤ 1 μM; Z = Ki > 1 μM) | X (X = Ki ≤ 0.1 μM) | X (X = Ki ≤ 0.1 μM) | X (X = Ki ≤ 0.1 μM) | < 0.1 µM | Y (Y = 5 μg/mL < MPC@4 ≤ 20 μg/mL) | Y (Y = 5 μg/mL < MPC@4 ≤ 20 μg/mL) | X (X = MPC@4 ≤ 5 μg/mL) | X (X = MPC@4 ≤ 5 μg/mL) | X (X = MPC@4 ≤ 5 μg/mL) | X (X = MPC@4 ≤ 5 μg/mL) | Y (Y = 5 μg/mL < MPC@4 ≤ 20 μg/mL) | Z (Z = MPC@4 > 20 μg/mL) | – | –
2 | NC(=O)COc1ccc2c(c1C(=O)O)OB(O)CC2 [Compound 46, 7-(2-Amino-2-oxo-ethoxy)-2-hydroxy-3,4-dihydro-1,2-benzoxaborinine-8-carboxylic acid] | X (X = MPC@1 ≤ 5 μg/mL) | Y (Y = 5 μg/mL < MPC@1 ≤ 20 μg/mL) | X (X = MPC@1 ≤ 5 μg/mL) | Y (Y = 5 μg/mL < MPC@1 ≤ 20 μg/mL) | < 0.1 µM | – | X (X = Ki ≤ 0.1 μM) | X (X = Ki ≤ 0.1 μM) | X (X = Ki ≤ 0.1 μM) | – | X (X = MPC@4 ≤ 5 μg/mL) | X (X = MPC@4 ≤ 5 μg/mL) | X (X = MPC@4 ≤ 5 μg/mL) | X (X = MPC@4 ≤ 5 μg/mL) | X (X = MPC@4 ≤ 5 μg/mL) | X (X = MPC@4 ≤ 5 μg/mL) | X (X = MPC@4 ≤ 5 μg/mL) | Z (Z = MPC@4 > 20 μg/mL) | X (X = Ki ≤ 0.1 μM) | < 0.1 µM
3 | CON=Cc1ccc2c(c1C(=O)[O-])O[B-](O)(O)CC2.[Na+].[Na+] [Compound 55, Disodium; 4,4-dihydroxy-8-(methoxyiminomethyl)-5-oxa-4-boranuidabicyclo[4.4.0]deca-1(6),7,9-triene-7-carboxylate] | X (X = MPC@1 ≤ 5 μg/mL) | X (X = MPC@1 ≤ 5 μg/mL) | Z (Z = MPC@1 > 20 μg/mL) | Z (Z = MPC@1 > 20 μg/mL) | < 0.1 µM | X (key: X = Ki ≤ 0.1 μM; Y = 0.1 μM < Ki ≤ 1 μM; Z = Ki > 1 μM) | X (X = Ki ≤ 0.1 μM) | X (X = Ki ≤ 0.1 μM) | X (X = Ki ≤ 0.1 μM) | < 0.1 µM | X (X = MPC@4 ≤ 5 μg/mL) | X (X = MPC@4 ≤ 5 μg/mL) | X (X = MPC@4 ≤ 5 μg/mL) | X (X = MPC@4 ≤ 5 μg/mL) | X (X = MPC@4 ≤ 5 μg/mL) | X (X = MPC@4 ≤ 5 μg/mL) | X (X = MPC@4 ≤ 5 μg/mL) | Z (Z = MPC@4 > 20 μg/mL) | – | –
